Results from ChEMBL document CHEMBL3352287, “Cytotoxic resin glycosides from Ipomoea aquatica and their effects on intracellular Ca2+ concentrations” (J Nat Prod, 2014).
Activity calls are given as the source filed them. The rule behind the calls is not given here.

How the values were obtained:
[1] = Cytotoxicity against human MCF7/ADR cells after 48 hrs by MTT assay; assay type: functional, cell-based; conditions: NCI/ADR-RES
[2] = tested on: HepG2; assay: Increase in intracellular Ca2+ level in human HepG2 cells assessed as increase in fluorescence intensity at 30 uM after 6 hrs by Fluo-3 AM -based fluorescence assay relative to control; assay type: functional
[3] = tested on: U2OS; assay: Cytotoxicity against human U2OS cells after 48 hrs by MTT assay; assay type: functional, cell-based
[4] = Cytotoxicity against human MG63 cells after 48 hrs by MTT assay; assay type: functional, cell-based; conditions: MG-63, 48 h
[5] = tested on: HepG2; assay: Cytotoxicity against human HepG2 cells after 48 hrs by MTT assay; assay type: functional, cell-based; conditions: HepG2, 48 h
[6] = tested on: MCF7; assay: Cytotoxicity against human MCF7 cells after 48 hrs by MTT assay; assay type: functional, cell-based; conditions: MCF7, 48 h
[7] = tested on: SMMC-7721; assay: Cytotoxicity against human SMMC7721 cells after 48 hrs by MTT assay; assay type: functional, cell-based; conditions: SMMC-7721, 48 h
[8] = tested on: MG-63; assay: Cytotoxicity against human MG63 cells at 10 uM after 48 hrs by MTT assay; assay type: functional, cell-based
[9] = tested on: U2OS; assay: Cytotoxicity against human U2OS cells at 10 uM after 48 hrs by MTT assay; assay type: functional, cell-based
[10] = tested on: MCF7; assay: Cytotoxicity against human MCF7 cells at 10 uM after 48 hrs by MTT assay; assay type: functional, cell-based
[11] = tested on: NCI/ADR-RES; assay: Cytotoxicity against human MCF7/ADR cells at 10 uM after 48 hrs by MTT assay; assay type: functional, cell-based
[12] = tested on: HepG2; assay: Cytotoxicity against human HepG2 cells at 10 uM after 48 hrs by MTT assay; assay type: functional, cell-based
[13] = tested on: SMMC-7721; assay: Cytotoxicity against human SMMC7721 cells at 10 uM after 48 hrs by MTT assay; assay type: functional, cell-based
[14] = tested on: HepG2; assay: Cell cycle arrest in human HepG2 cells assessed as increase in subG1 phase cells at 8 uM after 48 hrs using propidium iodide by flow cytometry; assay type: functional, cell-based
[15] = tested on: HepG2; assay: Cell cycle arrest in human HepG2 cells assessed as increase in G0/G1 phase cells after 48 hrs using propidium iodide by flow cytometry; assay type: functional, cell-based

SMILES	IC50 [1]	Activity [2]	IC50 [3]	IC50 ([4]; read-out: IC50)	IC50 [5]	IC50 [6]	IC50 [7]	Activity [8]	Activity [9]	Activity [10]	Activity [11]	Activity [12]	Activity [13]	IC50 [4]	Activity [14]	Activity [15]
CCCCCCCC(=O)O[C@@H]1[C@@H](O)[C@@H](O)[C@H](O[C@@H]2[C@@H](O[C@@H]3O[C@H](CO)[C@@H](O)[C@H](O)[C@H]3O)[C@@H](OC(=O)CCCCCCC)[C@H](O[C@@H]3[C@H]4OC(=O)CCCCCCCCC[C@H](CCCCC)O[C@@H]5O[C@H](C)[C@H](O)[C@H](O)[C@H]5O[C@H](O[C@H]3C)[C@@H]4O)O[C@H]2C)O[C@H]1C	> 10 µM	>200%	> 10 µM	5.4 µM	8.5 µM	7.4 µM	> 10 µM									
CCCCCCCC(=O)O[C@@H]1[C@@H](O)[C@H](C)O[C@@H](O[C@@H]2[C@@H](O[C@@H]3O[C@H](CO)[C@@H](O)[C@H](O)[C@H]3O)[C@@H](OC(=O)CCCCCCC)[C@H](O[C@@H]3[C@H]4OC(=O)CCCCCCCCC[C@H](CCCCC)O[C@@H]5O[C@H](C)[C@H](O)[C@H](O)[C@H]5O[C@H](O[C@H]3C)[C@@H]4O)O[C@H]2C)[C@@H]1O								inactive	inactive	inactive	inactive	inactive	inactive			
COc1cccc2c1C(=O)c1c(O)c3c(c(O)c1C2=O)C[C@@](O)(C(=O)CO)C[C@@H]3O[C@H]1C[C@H](N)[C@H](O)[C@H](C)O1 [DOXORUBICIN]			0.65 µM		0.36 µM	0.46 µM	1.1 µM							0.74 µM		
CCCCCCCC(=O)O[C@@H]1[C@@H](O)[C@@H](O)[C@H](O[C@@H]2[C@@H](O[C@@H]3O[C@@H](C)[C@H](O)[C@@H](O)[C@H]3O)[C@@H](OC(=O)[C@@H](C)CC)[C@H](O[C@@H]3[C@H]4OC(=O)CCCCCCCCC[C@H](CCCCC)O[C@@H]5O[C@H](C)[C@H](O)[C@H](O)[C@H]5O[C@H](O[C@H]3C)[C@@H]4O)O[C@H]2C)O[C@H]1C	> 10 µM	Active	9.4 µM	7.7 µM	3.7 µM	4.1 µM	9.5 µM									
CCCCCCCCCC(=O)O[C@H]1[C@H](O[C@@H]2[C@H]3OC(=O)CCCCCCCCC[C@H](CCCCC)O[C@@H]4O[C@H](C)[C@H](O)[C@H](O)[C@H]4O[C@H](O[C@H]2C)[C@@H]3O)O[C@@H](C)[C@H](O[C@@H]2O[C@@H](C)[C@H](OC(=O)CCCCCCC)[C@@H](O)[C@H]2O)[C@H]1O[C@@H]1O[C@@H](C)[C@H](O)[C@@H](O)[C@H]1O	> 10 µM	Active	> 10 µM	6 µM	4.9 µM	9.8 µM	> 10 µM									
CCCCCCCC(=O)O[C@@H]1[C@@H](O)[C@@H](O)[C@H](O[C@@H]2[C@@H](O[C@@H]3O[C@@H](C)[C@H](O)[C@@H](O)[C@H]3O)[C@@H](OC(=O)CCCCCCC)[C@H](O[C@@H]3[C@H]4OC(=O)CCCCCCCCC[C@H](CCCCC)O[C@@H]5O[C@H](C)[C@H](O)[C@H](O)[C@H]5O[C@H](O[C@H]3C)[C@@H]4O)O[C@H]2C)O[C@H]1C	> 10 µM	Active	9.6 µM	3.7 µM	5.2 µM	5 µM	9 µM									
CCCCCCCC(=O)O[C@@H]1[C@@H](O)[C@@H](O)[C@H](O[C@@H]2[C@@H](O[C@@H]3O[C@@H](C)[C@H](O)[C@@H](O)[C@H]3O)[C@@H](OC(=O)CCCCC)[C@H](O[C@@H]3[C@H]4OC(=O)CCCCCCCCC[C@H](CCCCC)O[C@@H]5O[C@H](C)[C@H](O)[C@H](O)[C@H]5O[C@H](O[C@H]3C)[C@@H]4O)O[C@H]2C)O[C@H]1C	> 10 µM	Active	4.5 µM	5.3 µM	2.4 µM	4.2 µM	6.3 µM								Active	Dose-dependent effect
